Assay results taken from the supplement of paper PMC10307832.

Assays:
Assay in all cases: relative viability (nuclei count vs DMSO), 5 days (fraction); higher = more cells survive
[1] = compound: CC(C)CCN1c2nc(Nc3cc(F)c(O)c(F)c3)ncc2N(C)C(=O)C1C [BI-D1870] + CC(C)C[C@H](NC(=O)[C@H](Cc1ccccc1)NC(=O)c1cnccn1)B(O)O [Bortezomib] (partner 0.002 µM)
How it was run: (§1)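 Lung cancer cell lines were pin-tool dosed in 1536-well plates on the day after seeding, with either a lone drug or a fixed anchor-drug dose plus five library-drug doses (not always all listed) in √10 steps. Nuclei were counted on 4× images after 5 days. Relative viability is the ratio of treated-well to vehicle-well nuclei counts, with each value a median of duplicate plates.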

[2] = compound: CC(C)CCN1c2nc(Nc3cc(F)c(O)c(F)c3)ncc2N(C)C(=O)C1C [BI-D1870] + O=C(CCCCCCC(=O)Nc1ccccc1)NO [Vorinostat] (partner 1 µM)
How it was run: as §1

[3] = compound: O=c1ncccn1[C@@H]1O[C@H](CO)[C@@H](O)[C@H]1O [Zebularine] + N=C(N)NC(=N)NCCc1ccccc1 [Phenformin] (partner 250 µM)
How it was run: as §1

[4] = compound: O=c1ncccn1[C@@H]1O[C@H](CO)[C@@H](O)[C@H]1O [Zebularine] + NC(=O)Nc1cc(-c2cccc(F)c2)sc1C(=O)N[C@H]1CCCNC1 [AZD7762] (partner 0.2 µM)
How it was run: as §1

Cell Line	relative viability ([1]; first compound 0.04 µM)	relative viability ([1]; first compound 0.1265 µM)	relative viability ([1]; first compound 0.4 µM)	relative viability ([1]; first compound 1.265 µM)	relative viability ([1]; first compound 4 µM)	relative viability ([2]; first compound 0.04 µM)	relative viability ([2]; first compound 0.1265 µM)	relative viability ([2]; first compound 0.4 µM)	relative viability ([2]; first compound 1.265 µM)	relative viability ([2]; first compound 4 µM)	relative viability ([3]; first compound 1 µM)	relative viability ([3]; first compound 3.162 µM)	relative viability ([3]; first compound 10 µM)	relative viability ([3]; first compound 31.62 µM)	relative viability ([3]; first compound 100 µM)	relative viability ([4]; first compound 1 µM)	relative viability ([4]; first compound 3.162 µM)	relative viability ([4]; first compound 10 µM)	relative viability ([4]; first compound 31.62 µM)	relative viability ([4]; first compound 100 µM)
NCI-H650	1.11	0.784	0.899	0.96	0.611	0.478	0.407	0.413	0.413	0.386	0.454	0.45	0.409	0.295	0.285	1.03	1.04	0.908	0.551	0.317
NCI-H1734	1.21	0.904	0.874	0.893	0.602	0.805	0.744	0.78	0.779	0.617	0.444	0.363	0.26	0.282	0.24	0.638	0.575	0.366	0.495	0.306
LXF-289	1.05	1.02	1	0.977	0.879	0.681	0.738	0.695	0.695	0.527	0.512	0.503	0.41	0.406	0.26	1.07	1.16	1.11	0.699	0.281
H3255	0.67	0.779	0.769	0.969	0.748	0.88	0.816	0.761	0.889	0.802	0.34	0.369	0.361	0.401	0.353	1.08	0.909	0.744	0.995	0.904
201T	1.14	1.06	1.07	1.1	1.06	1.01	0.91	0.922	0.914	0.932	0.527	0.485	0.327	0.492	0.368	0.674	0.594	0.426	0.691	0.607
NCI-H2126	1.12	1.1	1.06	1.14	1.05	0.802	0.718	0.719	0.735	0.578	0.579	0.473	0.445	0.494	0.435	0.988	0.963	0.673	0.968	0.691
HOP-62	0.74	0.812	0.809	0.803	0.456	0.737	0.669	0.602	0.703	0.464	0.827	0.653	0.286	0.282	0.266	0.649	0.658	0.303	0.307	0.247
CAL-12T	1.15	0.907	0.932	0.895	0.635	1.07	0.675	0.716	0.666	0.352	0.569	0.464	0.535	0.583	0.391	0.659	0.674	0.501	0.689	0.602
NCI-H1755	1.07	0.921	0.949	1.09	0.937	0.938	0.738	0.705	0.849	0.788	0.671	0.612	0.592	0.684	0.53	0.411	0.505	0.384	0.611	0.36
